The nature of data set [1]: Stability in Simulated Gastric Fluid (SGF). The class given is in vitro ADME. Set-up: key: % parent compound remaining relative to 0-minute sample. Put shortly:
(§1)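 Compound at 2 μg/mL final was incubated at 37 °C with shaking in SGF with pepsin (pH 1.2) or SIF with pancreatin (pH 6.8), sampled from 0 to 60 min. After acetonitrile precipitation, LC-MS/MS gave % parent remaining vs 0 min; half-life came from ln(% remaining) vs time.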

Data set [2] in a line: Stability in Simulated Intestinal Fluid (SIF). It is filed as in vitro ADME. Also on record: key: % parent compound remaining relative to 0-minute sample. Put shortly:
as §1

A short description of data set [3]: Caco-2 Permeability Assay. The class given is in vitro ADME, human. As to conditions: human. From the text: The compounds of the invention may be tested for biological activity as MPO inhibitors by methods known to those skilled in the art. In addition, methods such as, for example, a Caco-2 assay, may be used to test the bioavailability of the compounds of the invention. A description of a Caco-2 permeability assay is as follows:
• The Caco-2 monolayer is widely used across the pharmaceutical industry as an in vitro model of the human small intestinal mucosa to predict the absorption of orally administered drugs.^1-4 • The Caco-2 cell model mimics processes such as transcellular transport, paracellular transport, and some aspects of efflux and active transport. • Readout: Papp (A→B), Papp (B→A), Efflux ratio, % Recovery • Controls: with and without Pgp inhibitor; Atenolol, Propanolol, Taxel-1
The Caco-2 cells are cultured to confluency, trypsinized and seeded onto a filter transwell insert at a density of ^˜32,000 cells/well in DMEM cell culture medium. Cells are grown in a humidified atmosphere of 5% CO2 at 37° C. Following an overnight attachment period (24 h after seeding), the cell medium is replaced with fresh medium in both the apical and basolateral compartments every other day. The cell monolayers are used for transport studies 21 days post seeding after measuring the TEER values ([…]). The apical sides and basolateral sides are washed consecutively with HBSS 2.5% (v/v), HEPES (pH 7.4) or HBSS 2.5% (v/v), HEPES 10% (v/v), and Fetal Bovine Serum (pH 7.4) at 37° C. in an incubator under an atmosphere of 5% CO2.
Donor working solution is prepared by dilution of DMSO stock of test article or positive control with transport media to 10 μM.
For A→B directional transport, the donor working solution (with test article or positive control, with or without Pgp inhibitor) is added to the apical (A) compartment and the transport media as receiver working solution is added to the basolateral (B) compartment. For B→A directional transport, the donor working solution (with positive control or test article, with or without Pgp inhibitor) is added to the basolateral (B) compartment and transport media as receiver working solution is added to the apical (A) compartment.
The cells are incubated in a humidified atmosphere of 5% CO2 at 37° C. for 90 minutes.
At the end of the incubation, samples are taken from both donor and receiver compartments and transferred into 96-well assay plates containing internal standard solution (IS) in each well. After centrifugation, the supernatant solutions are transferred to clean 96 well plates and analyzed by LC-MS/MS. The MS detection is performed using a Sciex API 4000 instrument. Each compound is analyzed by reversed phase HPLC.
The parameters Papp (apparent permeability) and efflux ratio are calculated as follows:
Papp=(dQ/dt)×(1/C0)×(1/A)
Efflux ratio=Papp[B→A]/Papp[A→B]
where dQ/dt is the permeability rate, C0 is the initial concentration in the donor compartment, and A is the surface area of the cell monolayer (0.33 cm^2). The Papp value is a rate measured in cm/s. Calculated Papp is ranked as low (<[…]), moderate (1-10×10^−6 cm/s), and high (>[…]).
Comparing the efflux ratios generated in the presence and absence of a Pgp inhibitor identifies whether the test article is a Pgp substrate.
Recovery is calculated as follows:
% Recovery=(Total compound mass in donor and receiver compartments at the end of the incubation/Initial compound mass in the donor compartment)×100.

The nature of a further data set: Plasma Stability. The class given is in vitro ADME, human. Put shortly:
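Compounds incubated at 1 μM in fresh human plasma for 1 hour at 37° C, then protein-precipitated with acetonitrile/formic acid containing internal standard. Remaining parent measured by LC-MS/MS in triplicate, expressed as percent of control remaining.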

The mark [4] stands for this setting: % remaining at 1 h, SGF with pepsin pH 1.2, 2 μg/mL, 37° C.
The mark [5] stands for this setting: % remaining at 1 h, SIF with pancreatin pH 6.8, 2 μg/mL, 37° C.
[6] abbreviates: Caco-2, pH 7.4, donor 10 μM, 90 minutes, 37° C., direction not given.
Where [7] appears, read: % remaining at 1 h, human plasma, 1 μM, 37° C.
Where [8] appears, read: % remaining at 1 h in simulated gastric fluid.
Setting [9] is: % remaining at 1 h in simulated intestinal fluid.
Setting [10] is: Caco-2, pH 7.4, Caco-2 monolayer.
The mark [11] stands for this setting: % remaining at 1 h in human plasma.

A word on the Papp: it is a coefficient for how fast a substance crosses the barrier. As to `CC(C)OCCn1c(=S)[nH]c(=O)c2c1ccn2COC(=O)CCNC(=O)CNC(=O)OC(C)(C)C` [Example 9, {4-Oxo-1-[2-(propan-2-yloxy)ethyl]-2-sulfanylidene-1H,2H,3H,4H,5H-pyrrolo[3,2-d]pyrimidin-5-yl}methyl 3-(2-{[(tert-butoxy)carbonyl]amino}acetamido)propanoate], the SGF in data set [1] (setting [4]) was 100%. The SIF in data set [2] (setting [5]) is 61%. Also, the apparent permeability (Papp) at 90 min, 10 µM in data set [3] (setting [6]) was 1.53 ×10⁻⁶ cm/s. Besides, the “human Plasma stability” value in the data set “Plasma Stability” (setting [7]) is 52%.

Turning to `CC(C)OCCn1c(=S)[nH]c(=O)c2c1ccn2COC(=O)CCCCNC(=O)[C@@H](NC(=O)OC(C)(C)C)C(C)C` [Example 10, {4-oxo-1-[2-(propan-2-yloxy)-ethyl]-2-sulfanylidene-1H,2H,3H,4H,5H-pyrrolo[3,2-d]pyrimidin-5-yl}methyl5-[(2S)-2-{[(tert-butoxy)carbonyl]amino}-3-methylbutanamido]pentanoate], the SGF in data set [1] (setting [4]) is given as 81%. Further, the SIF in data set [2] (setting [5]) is recorded as 76%. This compound also came in with an apparent permeability coefficient (Papp) at 90 min, 10 µM in data set [3] (setting [6]) of 4.87 ×10⁻⁶ cm/s. The “human Plasma stability” value in the data set “Plasma Stability” (setting [7]) worked out at 72%.

In the case of `CC(C)OCCn1c(=S)[nH]c(=O)c2c1ccn2COC(=O)CCNC(=O)[C@@H](NC(=O)OC(C)(C)C)C(C)C` [Example 11, {4-oxo-1-[2-(propan-2-yloxy)-ethyl]-2-sulfanylidene-1H,2H,3H,4H,5H-pyrrolo[3,2-d]pyrimidin-5-yl}methyl3-[(2S)-2-{[(tert-butoxy)carbonyl]amino}-3-methylbutanamido]propanoate], in data set [1] (setting [4]), the SGF is listed as 74%. Besides, in data set [2] (setting [5]), the SIF is given as 69%. In data set [3] (setting [6]), the Papp at 90 min, 10 µM is 1.44 ×10⁻⁶ cm/s. For the same compound, in the data set “Plasma Stability” (setting [7]), the “human Plasma stability” value is listed as 99%.

On to `CC(C)OCCn1c(=S)[nH]c(=O)c2c1ccn2COC(=O)CCCCNC(=O)[C@@H](N)C(C)C` [Example 12, Trifluoroacetic acid {4-oxo-1-[2-(propan-2-yloxy)ethyl]-2-sulfanylidene-1H,2H,3H,4H,5H-pyrrolo[3,2-d]pyrimidin-5-yl}methyl 5-[(2S)-2-amino-3-methylbutanamido]pentanoate], for which, in data set [1] (setting [4]), the SGF was 100%. The SIF in data set [2] (setting [5]) was 94%. The apparent permeability (Papp) at 90 min, 10 µM in data set [3] (setting [6]) was determined as 0.4 ×10⁻⁶ cm/s. Besides, the “human Plasma stability” value in “Plasma Stability” (setting [7]) was found to be 76%.

Take `CC(C)OCCn1c(=S)[nH]c(=O)c2c1ccn2COC(=O)CCCCNC(=O)CNC(=O)OC(C)(C)C` [Example 13]: the SGF in data set [1] (setting [8]) was 96% remaining. In addition, the SIF in data set [2] (setting [9]) is 94% remaining. In addition, the apparent permeability coefficient (Papp) at 90 min, 10 µM in data set [3] (setting [10]) was found to be 1.88 ×10⁻⁶ cm/s. In the data set “Plasma Stability” (setting [11]), the “human Plasma stability” value is given as 1% remaining.

As to `CC(C)OCCn1c(=S)[nH]c(=O)c2c1ccn2COC(=O)CCNC(=O)[C@@H](N)C(C)C.O=C(O)C(F)(F)F` [Example 14], the SGF in data set [1] (setting [8]) was 95% remaining. In addition, the SIF in data set [2] (setting [9]) is recorded as 84% remaining. In data set [3] (setting [10]), this compound yielded a Papp at 90 min, 10 µM of less than 0.203 ×10⁻⁶ cm/s. Further, the “human Plasma stability” value in “Plasma Stability” (setting [11]) was found to be 55% remaining.

With `CC(C)OCCn1c(=S)[nH]c(=O)c2c1ccn2COC(=O)CCCCNC(=O)[C@H](CCc1ccccc1)NC(=O)OC(C)(C)C.O=C(O)C(F)(F)F` [Example 18], the SGF in data set [1] (setting [8]) was 100%. Further, in data set [2] (setting [9]), the SIF is recorded as 65% remaining. Moreover, the apparent permeability coefficient (Papp) at 90 min, 10 µM in data set [3] (setting [10]) came out at 7.59 ×10⁻⁶ cm/s. In the data set “Plasma Stability” (setting [11]), the “human Plasma stability” value was found to be 66% remaining.

`CC(C)OCCn1c(=S)[nH]c(=O)c2c1ccn2COC(=O)CCNC(=O)[C@H](CCc1ccccc1)NC(=O)OC(C)(C)C.O=C(O)C(F)(F)F` [Example 19]: in data set [1] (setting [8]), the SGF is on record as 82% remaining. Moreover, the SIF in data set [2] (setting [9]) is given as 57% remaining. The Papp at 90 min, 10 µM in data set [3] (setting [10]) was determined as 11.7 ×10⁻⁶ cm/s. In addition, in “Plasma Stability” (setting [11]), the “human Plasma stability” value is listed as 42% remaining.

For `CSCC[C@H](NC(=O)OCC1c2ccccc2-c2ccccc21)C(=O)NCCCCC(=O)OCn1ccc2c1c(=O)[nH]c(=S)n2CCOC(C)C.O=C(O)C(F)(F)F` [Example 20], the SGF in data set [1] (setting [8]) is recorded as 80% remaining. In data set [2] (setting [9]), the SIF is on record as 76% remaining. Also, the apparent permeability coefficient (Papp) at 90 min, 10 µM in data set [3] (setting [10]) was 0.985 ×10⁻⁶ cm/s. The “human Plasma stability” value in “Plasma Stability” (setting [11]) amounted to 64% remaining.

(Values after patent publication US20240067651A1 (Biohaven Therapeutics Ltd., priority 2019, published 2024).)
